The IC50 is the concentration that inhibits the measured activity by half. Usually inhibition stands for the drop in the measured response relative to a control, in per cent. The term inhibition in vivo denotes the share of the control response that was lost under treatment.

12 compounds from ChEMBL document CHEMBL1772992, “Synthesis, in silico docking experiments of new 2-pyrrolidinone derivatives and study of their anti-inflammatory activity” (Bioorg Med Chem, 2011) can be followed below.

Assay [1] deals with Radical scavenging activity. The assay is described as follows: Antioxidant activity assessed as DPPH free radical scavenging activity after 20 to 60 mins by spectrophotometry. The assay is classed as functional. More on the design: concentration or dose not given beside the values.
Assay [2] is described as follows: Inhibition of soybean LOX assessed as inhibition of sodium linoleate to 13-hydroperoxylinoleic acid conversion by UV-visible spectrophotometry. Further details: species or system Glycine max.
Assay [3] is described as follows: Antioxidant activity against AAPH-induced lipid peroxidation assessed as linoleic acid oxidation to diene hydroperoxide at 0.1 mM by UV-visible spectrophotometry. The class given is functional.
In another assay the test system is Rattus norvegicus. The assay is described as follows: Antiinflammatory activity in Fisher 344 rat assessed as inhibition of carrageenan-induced paw edema at 0.01 mmol/kg, ip administered simultaneously with carrageenan measured after 3.5 hrs relative to control. The class given is functional. Particulars: Fisher 344, ip. On the technique in general: Carrageenan injected into the paw causes an acute inflammation.

The test system of a further assay is Glycine max. The assay is described as follows: Inhibition of soybean LOX assessed as inhibition of sodium linoleate to 13-hydroperoxylinoleic acid conversion at 0.1 mM by UV-visible spectrophotometry.

Calls of active or inactive are those of the source. The rule behind the calls is not given here.

As for `O=C(O)/C=C/c1ccc(O)c(O)c1` [CAFFEIC ACID], the Activity in assay [1] was 5.5%. The IC50 in assay [2] is 600 µM. Also, the inhibition in assay [3] worked out at 17%.

For `COc1ccc2c(c1)c(CC(=O)O)c(C)n2C(=O)c1ccc(Cl)cc1` [INDOMETHACIN], the inhibition in vivo at 10 µmol/kg in the assay on Rattus norvegicus is 47%.

Regarding `CC(Cc1ccc(O)c(O)c1)C(C)Cc1ccc(O)c(O)c1` (stereo not drawn), the inhibition with Glycine max is 84%. Moreover, in assay [1], the Activity is 81%.

As for `COC(=O)c1ccc(CN2C(=O)CC[C@H]2Cn2ccnc2)cc1`, the inhibition entry with Glycine max is “inactive”. In addition, in assay [1], the Activity turned out to be 6%. The inhibition in assay [3] came to 13%.

As for `COC(=O)c1cncn1C[C@@H]1CCC(=O)N1Cc1ccc(C(=O)O)cc1`, the inhibition result (in the assay with Glycine max; in assay [3]) was “inactive” in each case. Also, the Activity in assay [1] was 26%.

As to `Cc1c(C)c2c(c(C)c1O)CCC(C)(C(=O)O)O2` (stereo not drawn), the inhibition in assay [3] was 63%.

Turning to `O=C1CC[C@@H](Cn2ccnc2)N1Cc1ccccc1`, the figures for the inhibition (with Glycine max; in assay [3]) were 13% and 11%, respectively. The Activity in assay [1] worked out at 9%.

As for `O=C1CC[C@@H](Cn2ccnc2)N1Cc1cccc(O)c1`, the inhibition entry in the assay on Glycine max is “inactive”. Moreover, the Activity in assay [1] amounted to 29%. In addition, the inhibition in assay [3] is 13%.

For `O=C(O)c1ccc(CN2C(=O)CC[C@H]2Cn2ccnc2)cc1`, the Activity in assay [1] came out at 6%. For the same compound, the inhibition in vivo at 10 µmol/kg in the assay with Rattus norvegicus stood at 41%. Moreover, the IC50 in assay [2] worked out at 80 µM. In addition, the inhibition in assay [3] stood at 2%.

On to `O=C1CC[C@@H](Cn2ccnc2)N1Cc1ccccc1-c1nn[nH]n1`, for which the inhibition with Glycine max was 5.2%; in assay [3] it was 32%. Moreover, the Activity in assay [1] was 30%.

On to `COC(=O)c1ccc(CN2C(=O)CC[C@H]2Cn2cncc2C(=O)O)cc1`, for which the Activity in assay [1] stood at 3%. In addition, in the assay with Rattus norvegicus, the inhibition in vivo at 10 µmol/kg amounted to 34%. Also, the IC50 in assay [2] is 70.5 µM. In addition, the inhibition in assay [3] was 96%.

Consider `O=C(O)c1cncn1C[C@@H]1CCC(=O)N1Cc1ccccc1`, for which the inhibition with Glycine max is 81%. Moreover, the result in assay [1] was inactive. For the same compound, the inhibition entry in assay [3] is “inactive”.
